Source: PMC12649549, “Sequence Permutation Generated Lysine and Tryptophan-Rich Antimicrobial Peptides with Enhanced Therapeutic Index” (Antibiotics, 2025)
Read-outs that look alike come from different tables or passages of the source.

Assays:
[1] = test system: A. baumannii 14B00100 (Acinetobacter sp., BCRC number 14B0100)
Procedure, shortened: (§1)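 Salt and pH tolerance was assessed by determining MICs in LYM medium containing 50–300 mM NaCl, 0.5–2.5 mM MgCl2, or at pH 4.5–6.5, alongside MH broth. The inoculum was 5 × 10^5 CFU/mL.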

[2] = test system: A. baumannii 14B0091 (Acinetobacter sp., BCRC number 14B0091)
Procedure, shortened: as §1

[3] = test system: A. baumannii 14B0097 (Acinetobacter sp., BCRC number 14B0097)
Procedure, shortened: as §1

[4] = test system: Escherichia coli (ATCC 25922)
Procedure, shortened: as §1

S. aureus ATCC 25923 = test system: S. aureus ATCC 25923
Procedure, shortened: as §1

S. aureus ATCC 33591 = test system: S. aureus ATCC 33591
Procedure, shortened: as §1

S. aureus ATCC 33593 = test system: S. aureus ATCC 33593
Procedure, shortened: as §1

S. aureus ATCC 6538 = test system: S. aureus ATCC 6538
Procedure, shortened: as §1

[5] = LYM broth, 0 mM NaCl, 16 h, 37 °C
[6] = LYM broth, 50 mM NaCl, 16 h, 37 °C
[7] = LYM broth, 100 mM NaCl, 16 h, 37 °C
[8] = LYM broth, 200 mM (NaCl), 16 h, 37 °C
[9] = LYM broth, 300 mM (NaCl), 16 h, 37 °C
[10] = MH broth, 5 × 10^5 CFU/mL, 16 h, 37 °C, repeated three times

Ac-LKWLAKKKKWRKW-NH2 [Peptide W5K06]
MIC [1, 5]: 3.13 µg/mL | MIC ([1]; LYM broth, 0.5 mM MgCl2): 3.13 µg/mL | MIC ([1]; LYM broth, 1.5 mM MgCl2): 3.13 µg/mL | MIC ([1]; LYM broth, 2.5 mM MgCl2): 3.13 µg/mL | MIC [1, 6]: 3.13 µg/mL | MIC [1, 7]: 6.25 µg/mL | MIC [1, 8]: 25 µg/mL | MIC [1, 9]: >50 µg/mL | MIC ([1]; LYM broth, pH 4.5): 3.13 µg/mL | MIC ([1]; LYM broth, pH 5.5): 3.13 µg/mL | MIC ([1]; LYM broth, pH 6.5): 1.56 µg/mL | MIC [1, 10]: 50 µg/mL | MIC [2, 5]: 3.13 µg/mL | MIC ([2]; LYM broth, 0.5 mM MgCl2): 3.13 µg/mL | MIC ([2]; LYM broth, 1.5 mM MgCl2): 3.13 µg/mL | MIC ([2]; LYM broth, 2.5 mM MgCl2): 3.13 µg/mL | MIC [2, 6]: 3.13 µg/mL | MIC [2, 7]: 6.25 µg/mL | MIC [2, 8]: 50 µg/mL | MIC [2, 9]: >50 µg/mL | MIC ([2]; LYM broth, pH 4.5): 3.13 µg/mL | MIC ([2]; LYM broth, pH 5.5): 3.13 µg/mL | MIC ([2]; LYM broth, pH 6.5): 1.56 µg/mL | MIC [2, 10]: 50 µg/mL | MIC [3, 5]: 3.13 µg/mL | MIC ([3]; LYM broth, 0.5 mM MgCl2): 3.13 µg/mL | MIC ([3]; LYM broth, 1.5 mM MgCl2): 3.13 µg/mL | MIC ([3]; LYM broth, 2.5 mM MgCl2): 3.13 µg/mL | MIC [3, 6]: 3.13 µg/mL | MIC [3, 7]: 6.25 µg/mL | MIC [3, 8]: 50 µg/mL | MIC [3, 9]: >50 µg/mL | MIC ([3]; LYM broth, pH 4.5): 3.13 µg/mL | MIC ([3]; LYM broth, pH 5.5): 3.13 µg/mL | MIC ([3]; LYM broth, pH 6.5): 1.56 µg/mL | MIC [3, 10]: 50 µg/mL | MIC [4, 5]: 6.25 µg/mL | MIC ([4]; LYM broth, 0.5 mM MgCl2): 6.25 µg/mL | MIC ([4]; LYM broth, 1.5 mM MgCl2): 6.25 µg/mL | MIC ([4]; LYM broth, 2.5 mM MgCl2): 6.25 µg/mL | MIC [4, 6]: 12.5 µg/mL | MIC [4, 7]: 50 µg/mL | MIC [4, 8]: >50 µg/mL | MIC [4, 9]: >50 µg/mL | MIC ([4]; LYM broth, pH 4.5): 12.5 µg/mL | MIC ([4]; LYM broth, pH 5.5): 6.25 µg/mL | MIC ([4]; LYM broth, pH 6.5): 3.13 µg/mL | MIC [4, 10]: 25 µg/mL | MIC (S. aureus ATCC 25923; [5]): 6.25 µg/mL | MIC (S. aureus ATCC 25923; LYM broth, 0.5 mM MgCl2): 6.25 µg/mL | MIC (S. aureus ATCC 25923; LYM broth, 1.5 mM MgCl2): 6.25 µg/mL | MIC (S. aureus ATCC 25923; LYM broth, 2.5 mM MgCl2): 6.25 µg/mL | MIC (S. aureus ATCC 25923; [6]): 12.5 µg/mL | MIC (S. aureus ATCC 25923; [7]): 25 µg/mL | MIC (S. aureus ATCC 25923; [8]): 50 µg/mL | MIC (S. aureus ATCC 25923; [9]): >50 µg/mL | MIC (S. aureus ATCC 25923; LYM broth, pH 4.5): 6.25 µg/mL | MIC (S. aureus ATCC 25923; LYM broth, pH 5.5): 6.25 µg/mL | MIC (S. aureus ATCC 25923; LYM broth, pH 6.5): 3.13 µg/mL | MIC (S. aureus ATCC 25923; [10]): 50 µg/mL | MIC (S. aureus ATCC 33591; [5]): 12.5 µg/mL | MIC (S. aureus ATCC 33591; LYM broth, 0.5 mM MgCl2): 12.5 µg/mL | MIC (S. aureus ATCC 33591; LYM broth, 1.5 mM MgCl2): 12.5 µg/mL | MIC (S. aureus ATCC 33591; LYM broth, 2.5 mM MgCl2): 25 µg/mL | MIC (S. aureus ATCC 33591; [6]): 25 µg/mL | MIC (S. aureus ATCC 33591; [7]): 50 µg/mL | MIC (S. aureus ATCC 33591; [8]): 50 µg/mL | MIC (S. aureus ATCC 33591; [9]): >50 µg/mL | MIC (S. aureus ATCC 33591; LYM broth, pH 4.5): 12.5 µg/mL | MIC (S. aureus ATCC 33591; LYM broth, pH 5.5): 6.25 µg/mL | MIC (S. aureus ATCC 33591; LYM broth, pH 6.5): 6.25 µg/mL | MIC (S. aureus ATCC 33591; [10]): >50 µg/mL | MIC (S. aureus ATCC 33593; [5]): 12.5 µg/mL | MIC (S. aureus ATCC 33593; LYM broth, 0.5 mM MgCl2): 12.5 µg/mL | MIC (S. aureus ATCC 33593; LYM broth, 1.5 mM MgCl2): 25 µg/mL | MIC (S. aureus ATCC 33593; LYM broth, 2.5 mM MgCl2): 25 µg/mL | MIC (S. aureus ATCC 33593; [6]): 25 µg/mL | MIC (S. aureus ATCC 33593; [7]): 50 µg/mL | MIC (S. aureus ATCC 33593; [8]): >50 µg/mL | MIC (S. aureus ATCC 33593; [9]): >50 µg/mL | MIC (S. aureus ATCC 33593; LYM broth, pH 4.5): 12.5 µg/mL | MIC (S. aureus ATCC 33593; LYM broth, pH 5.5): 6.25 µg/mL | MIC (S. aureus ATCC 33593; LYM broth, pH 6.5): 6.25 µg/mL | MIC (S. aureus ATCC 33593; [10]): >50 µg/mL | MIC (S. aureus ATCC 6538; [5]): 6.25 µg/mL | MIC (S. aureus ATCC 6538; LYM broth, 0.5 mM MgCl2): 3.13 µg/mL | MIC (S. aureus ATCC 6538; LYM broth, 1.5 mM MgCl2): 3.13 µg/mL | MIC (S. aureus ATCC 6538; LYM broth, 2.5 mM MgCl2): 6.25 µg/mL | MIC (S. aureus ATCC 6538; [6]): 6.25 µg/mL | MIC (S. aureus ATCC 6538; [7]): 25 µg/mL | MIC (S. aureus ATCC 6538; [8]): 50 µg/mL | MIC (S. aureus ATCC 6538; [9]): >50 µg/mL | MIC (S. aureus ATCC 6538; LYM broth, pH 4.5): 6.25 µg/mL | MIC (S. aureus ATCC 6538; LYM broth, pH 5.5): 6.25 µg/mL | MIC (S. aureus ATCC 6538; LYM broth, pH 6.5): 6.25 µg/mL | MIC (S. aureus ATCC 6538; [10]): 50 µg/mL
